Series [1] deals with T1, muscarinic receptor subtype M3 (Homo sapiens, UniProt P20309).
T1 construct: purchased Receptor Biology division of Perkin Elmer Life Sciences (Beltsville, Md.)
The series can be described thus: In vitro muscarinic receptor binding assay ([3H]NMS competition, SPA). The following applies: cloned human receptors in CHO cell membranes, [3H]N-methylscopolamine, average of four determinations. The procedure: (§1) Affinities of test compounds for muscarinic receptor subtypes M1–M4 were determined. Competition radioligand binding experiments employed 11 drug concentrations run in duplicate. [^3H]N-methylscopolamine (NMS) was used as an antagonist radioligand, at the concentration equal to its equilibrium dissociation constant (Kd) for each receptor subtype. […] Total binding was determined with phosphate buffered saline (PBS). Cloned human receptors permanently expressed in CHO cells were the source of all binding sites. Membranes were purchased from Receptor Biology division of Perkin Elmer Life Sciences (Beltsville, Md.). The assays were run in scintillation proximity assay (SPA) format. Binding mixtures were made in flexible, 96-well, Wallac Micro-Beta plates by the addition of 11 μl of drug dilution, 11 μl of radioligand, and 178 μl of membrane/SPA bead suspension (100 mg of WGA-coated SPA beads, incubated with 5–15 μg protein/plate in 10 ml PBS for 30 min at room temperature, followed by low-speed centrifugation and resuspension in 2 ml PBS). After sealing and incubation at room temperature for 1 hour the plates were counted in a Wallac Micro-Beta scintillation counter. IC50 values were estimated by fitting the data to a one-site competition model: Y=T/(1+10^log(x)−log(IC50)), where Y is the specific CPM's bound at concentration X, and T is the specific CPM's bound in the absence of competitor. Inhibition constants (Ki) were calculated using the Cheng-Prushoff equation (Cheng, Y; Prushoff, W H, Biochem Pharmacol 22: 3099–3108, 1973). Curve fitting and Ki calculations were carried out using GraphPad Prism, version 3.0 (San Diego, Calif.).
(§2) Results are the average of four separate determinations. In vitro Binding

The target of series [2] is T2, muscarinic receptor subtype M2 (Homo sapiens, UniProt P08172).
T2 construct: purchased Receptor Biology division of Perkin Elmer Life Sciences (Beltsville, Md.)
T2 sequence (P08172 1-466): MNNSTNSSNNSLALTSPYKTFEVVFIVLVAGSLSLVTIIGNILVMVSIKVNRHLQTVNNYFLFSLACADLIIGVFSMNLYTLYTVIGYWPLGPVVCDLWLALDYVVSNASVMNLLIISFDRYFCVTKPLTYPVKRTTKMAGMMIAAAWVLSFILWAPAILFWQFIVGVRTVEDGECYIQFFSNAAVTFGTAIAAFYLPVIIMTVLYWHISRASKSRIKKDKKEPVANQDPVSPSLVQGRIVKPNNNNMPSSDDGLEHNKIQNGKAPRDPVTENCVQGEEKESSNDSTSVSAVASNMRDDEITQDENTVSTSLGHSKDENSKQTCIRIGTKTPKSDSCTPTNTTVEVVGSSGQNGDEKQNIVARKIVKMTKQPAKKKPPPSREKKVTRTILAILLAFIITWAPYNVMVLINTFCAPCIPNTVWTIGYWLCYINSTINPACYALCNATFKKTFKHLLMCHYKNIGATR
The series is described as above. The following applies: cloned human receptors in CHO cell membranes, [3H]N-methylscopolamine, average of four determinations. On the procedure: as §1, §2

For series [3], the target named is T3, muscarinic receptor subtype M4 (Homo sapiens, UniProt P08173).
T3 construct: purchased Receptor Biology division of Perkin Elmer Life Sciences (Beltsville, Md.)
T3 sequence (P08173 1-479): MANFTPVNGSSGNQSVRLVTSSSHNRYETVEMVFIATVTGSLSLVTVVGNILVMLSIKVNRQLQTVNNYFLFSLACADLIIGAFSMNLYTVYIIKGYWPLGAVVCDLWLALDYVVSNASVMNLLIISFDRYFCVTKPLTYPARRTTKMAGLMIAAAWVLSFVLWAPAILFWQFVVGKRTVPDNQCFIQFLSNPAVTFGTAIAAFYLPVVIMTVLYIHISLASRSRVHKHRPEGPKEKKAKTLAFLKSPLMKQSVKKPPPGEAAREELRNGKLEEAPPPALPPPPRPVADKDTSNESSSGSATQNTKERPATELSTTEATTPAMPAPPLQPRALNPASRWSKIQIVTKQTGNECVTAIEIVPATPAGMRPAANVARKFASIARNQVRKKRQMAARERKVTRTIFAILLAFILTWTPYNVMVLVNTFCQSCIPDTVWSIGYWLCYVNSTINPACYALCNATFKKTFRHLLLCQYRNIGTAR
The series is described as above. The following applies: cloned human receptors in CHO cell membranes, [3H]N-methylscopolamine, average of four determinations. The procedure: as §1, §2

The target in series [4] is T4, muscarinic receptor subtype M1 (Homo sapiens, UniProt P11229).
T4 construct: purchased Receptor Biology division of Perkin Elmer Life Sciences (Beltsville, Md.)
T4 sequence (P11229 1-460): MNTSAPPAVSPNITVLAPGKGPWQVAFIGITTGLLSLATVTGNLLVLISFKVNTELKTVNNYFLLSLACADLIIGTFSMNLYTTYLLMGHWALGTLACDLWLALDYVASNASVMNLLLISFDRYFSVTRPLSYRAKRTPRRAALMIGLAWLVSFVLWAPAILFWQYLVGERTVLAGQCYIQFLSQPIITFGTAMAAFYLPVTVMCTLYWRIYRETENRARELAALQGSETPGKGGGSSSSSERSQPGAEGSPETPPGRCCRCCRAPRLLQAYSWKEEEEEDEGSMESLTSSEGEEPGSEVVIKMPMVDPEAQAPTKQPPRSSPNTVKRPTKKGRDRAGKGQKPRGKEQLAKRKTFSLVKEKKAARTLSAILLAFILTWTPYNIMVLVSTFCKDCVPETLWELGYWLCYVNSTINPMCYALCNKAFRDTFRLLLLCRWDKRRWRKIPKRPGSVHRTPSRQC
Described as above. The following applies: cloned human receptors in CHO cell membranes, [3H]N-methylscopolamine, average of four determinations. On the procedure:
as §1, §2

Series [5] has as its target P450 CYP2D6 enzyme (Homo sapiens, UniProt P10635). The series can be described thus: Protection from CYP2D6 metabolism (microsome incubation, HPLC). In kind it is in vitro ADME. The following applies: approx. 10 μM [14C]-labeled compound, microsomes with CYP2D6 (20 pmol), 1 mM β-NADPH, pH 7.4, 37° C., 20 min. The procedure: [^14C]-labeled N,N-diisopropyl-3-(2-hydroxy-5-trifluoromethylphenyl)-3-phenylpropanamine is synthesized, following the general procedure of examples 1–9. Approximately 10 μM of the compound is incubated with microsomes containing P450 CYP2D6 enzyme (20 pmol) in 100 mM potassium phosphate buffer (pH 7.4) and 1 mM β-NADPH at 37° C. in a final volume of 250 μl for 20 min.
The incubations are analyzed for the parent drug and its metabolites by HPLC using standard procedures. The amount of each metabolite is calculated from the resulting radiochromatogram. The retention times of formed metabolites are compared with the retention times of synthesized reference standards, and the identity of the formed metabolites is further confirmed by electrospray ionization mass spectrometry.

T1 sequence (P20309 whole entry): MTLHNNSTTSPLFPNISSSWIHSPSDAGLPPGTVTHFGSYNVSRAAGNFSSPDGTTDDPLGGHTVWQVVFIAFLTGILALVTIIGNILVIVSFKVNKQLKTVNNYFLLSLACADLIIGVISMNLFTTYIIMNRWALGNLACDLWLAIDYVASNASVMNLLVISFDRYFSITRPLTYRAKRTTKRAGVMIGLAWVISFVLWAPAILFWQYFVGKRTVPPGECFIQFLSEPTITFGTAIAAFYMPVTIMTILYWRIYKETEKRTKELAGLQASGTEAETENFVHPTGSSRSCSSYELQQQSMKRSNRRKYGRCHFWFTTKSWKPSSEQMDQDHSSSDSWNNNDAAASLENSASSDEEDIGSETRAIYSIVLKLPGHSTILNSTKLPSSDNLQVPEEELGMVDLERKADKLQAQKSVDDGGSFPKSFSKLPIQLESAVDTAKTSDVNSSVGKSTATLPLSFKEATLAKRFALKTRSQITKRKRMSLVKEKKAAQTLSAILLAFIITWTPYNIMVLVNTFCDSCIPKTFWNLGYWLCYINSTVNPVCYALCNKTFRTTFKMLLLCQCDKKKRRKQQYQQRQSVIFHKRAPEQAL
Chain of P450 CYP2D6 enzyme (P10635 whole entry): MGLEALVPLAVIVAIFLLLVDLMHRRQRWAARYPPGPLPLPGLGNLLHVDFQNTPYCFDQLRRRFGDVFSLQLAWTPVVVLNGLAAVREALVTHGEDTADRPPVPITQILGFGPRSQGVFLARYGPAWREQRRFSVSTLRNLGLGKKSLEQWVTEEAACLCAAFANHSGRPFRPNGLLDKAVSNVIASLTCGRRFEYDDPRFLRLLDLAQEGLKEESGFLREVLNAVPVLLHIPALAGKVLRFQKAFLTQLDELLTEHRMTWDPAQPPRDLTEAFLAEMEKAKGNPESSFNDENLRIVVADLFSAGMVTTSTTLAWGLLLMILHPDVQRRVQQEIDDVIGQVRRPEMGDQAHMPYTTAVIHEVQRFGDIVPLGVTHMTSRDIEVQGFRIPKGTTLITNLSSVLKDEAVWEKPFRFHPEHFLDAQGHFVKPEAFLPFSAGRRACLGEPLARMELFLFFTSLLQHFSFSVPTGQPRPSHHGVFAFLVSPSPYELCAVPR

In general, Ki refers to a measure of affinity in units of concentration, obtained from inhibition or displacement. Turning to `CC(C)N(CCC(c1ccccc1)c1cc(C(F)(F)F)ccc1O)C(C)C` (racemic) [N,N-Diisopropyl-3-(2-hydroxy-5-trifluoro-methylphenyl)-3-phenylpropanamine], the inhibition constant Ki in series [1] worked out at 16 nM; in series [2], 8.4 nM; in series [3] it was 6 nM; in series [4] it was 3.9 nM. Moreover, the “oxidation/hydroxylation by P450 CYP2D6 enzyme” value in series [5] is given as “not readily hydroxylated at the 5-trifluoromethyl substituent”.
Regarding `Cc1ccc(O)c([C@H](CCN(C(C)C)C(C)C)c2ccccc2)c1` [tolterodine, 2-[(1R)-3-(diisopropylamino)-1-phenylpropyl)-4-methylphenol, reference compound], the Ki in series [3] came to 0.64 nM; in series [4], 0.79 nM.

The values above are taken from US7119121B2, “3,3-diphenylpropylamines useful in therapy” (Pfizer Inc., priority 2003, dated 2006).
